12 compounds from patent publication US10172830B2, “Pyrazolone compounds having human neutrophil elastase inhibitory properties” (CHIESI FARMACEUTICI S.P.A., priority 2016, dated 2019) can be followed below.

pIC50: −log10 of the molar value. Bounds are passed on as bounds.

In the assay the target is T1, human neutrophil elastase (HNE) (Homo sapiens, UniProt P08246).
T1 construct: purchased Sigma E8140
T1 sequence (P08246 30-247 limits assumed): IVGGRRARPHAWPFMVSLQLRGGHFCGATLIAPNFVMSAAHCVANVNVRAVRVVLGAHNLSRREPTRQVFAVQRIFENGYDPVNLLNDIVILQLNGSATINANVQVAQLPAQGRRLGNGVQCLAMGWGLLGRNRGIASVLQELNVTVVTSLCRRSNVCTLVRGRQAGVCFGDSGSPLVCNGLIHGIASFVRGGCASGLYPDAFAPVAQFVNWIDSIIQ
In words: HNE enzyme assay (human neutrophil elastase enzyme activity assay). Format: biochemical. Particulars: human leukocyte elastase 0.00072 U/mL; substrate MeOSuc-Ala-Ala-Pro-Val-AMC 100 μM; 25° C. for 30 minutes; at least two separate experiments; read-out: HNE inhibition (HNE enzyme inhibition, IC50 values). In outline: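 Human leukocyte elastase (0.00072 U/mL) with 100 μM MeOSuc-AAPV-AMC in Tris/NaCl/CaCl2/Brij-35 buffer, pH 7.5, 1% DMSO, 30 min at 25 °C; stopped with soybean trypsin inhibitor. AMC fluorescence (380/460 nm) as % inhibition of control; IC50 from dose-response curves, ≥2 experiments.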
As usually defined, the pIC50 is −log10 of the IC50, conventionally taken in molar units. In the case of `CN(CC[N+](C)(C)C)C(=O)C1(NC(=O)c2c(-c3ccnn3-c3ccc(C#N)cc3)n(C)n(-c3cccc(C(F)(F)F)c3)c2=O)CCCC1` [Example 61, {2-[(1-{[2′-(4-Cyano-phenyl)-2-methyl-5-oxo-1-(3-trifluoromethyl-phenyl)-2,5-dihydro-1H,2′H-[3,3′]bipyrazolyl-4-carbonyl]-amino}-cyclopentanecarbonyl)-methyl-amino]-ethyl}-trimethyl-ammonium benzene sulphonate], the pIC50 is over 9.00.
`Cn1c(-c2ccnn2-c2ccc(C#N)cc2)c(C(=O)N[C@H]2CC[C@H](OC(=O)C[N+](C)(C)C)CC2)c(=O)n1-c1cccc(C(F)(F)F)c1` [Example 62, (Trans-4-{[2′-(4-cyano-phenyl)-2-methyl-5-oxo-1-(3-trifluoromethyl-phenyl)-2,5-dihydro-1H,2′H-[3,3′]bipyrazolyl-4-carbonyl]-amino}-cyclohexyloxycarbonylmethyl)-trimethyl-ammonium benzene sulphonate]: the pIC50 was over 9.00.
In the case of `Cn1c(-c2ccnn2-c2ccc(C#N)cc2)c(C(=O)NC2CCN(C(=O)CC[N+](C)(C)C)CC2)c(=O)n1-c1cccc(C(F)(F)F)c1` [Example 63, 3-(4-{[2′-(4-Cyano-phenyl)-2-methyl-5-oxo-1-(3-trifluoromethyl-phenyl)-2,5-dihydro-1H,2′H-[3,3′]bipyrazolyl-4-carbonyl]-amino}-piperidin-1-yl)-3-oxo-propyl]-trimethyl-ammonium benzene sulphonate], the pIC50 was over 9.00.
As to `Cn1c(-c2ccnn2-c2ccc(C#N)cc2)c(C(=O)NC2(C)CCN(C(=O)C[N+](C)(C)C)CC2)c(=O)n1-c1cccc(C(F)(F)F)c1` [Example 64, [2-(4-{[2′-(4-Cyano-phenyl)-2-methyl-5-oxo-1-(3-trifluoromethyl-phenyl)-2,5-dihydro-1H,2′H-[3,3′]bipyrazolyl-4-carbonyl]-amino}-4-methyl-piperidin-1-yl)-2-oxo-ethyl]-trimethyl-ammonium benzene sulphonate], the pIC50 is over 9.00.
`Cn1c(-c2ccnn2-c2ccc(C#N)cc2)c(C(=O)N[C@H]2CC[C@H](C(=O)OCC[N+](C)(C)C)CC2)c(=O)n1-c1cccc(C(F)(F)F)c1` [Example 65, [2-(Trans-4-{[2′-(4-cyano-phenyl)-2-methyl-5-oxo-1-(3-trifluoromethyl-phenyl)-2,5-dihydro-1H,2′H-[3,3′]bipyrazolyl-4-carbonyl]-amino}-cyclohexanecarbonyloxy)-ethyl]-trimethyl-ammonium benzene sulphonate]: the pIC50 is over 9.00.
As for `C[C@H](NC(=O)c1c(-c2ccnn2-c2ccc(C#N)cc2)n(C)n(-c2cccc(C(F)(F)F)c2)c1=O)C(=O)N1CCC[N+](C)(C)CC1` [Example 66, 4-((S)-2-{[2′-(4-Cyano-phenyl)-2-methyl-5-oxo-1-(3-trifluoromethyl-phenyl)-2,5-dihydro-1H,2′H-[3,3′]bipyrazolyl-4-carbonyl]-amino}-propionyl)-1,1-dimethyl-[1,4]diazepan-1-ium benzene sulphonate], the figure is over 9.00.
As to `Cn1c(-c2ccnn2-c2ccc(C#N)cc2)c(C(=O)N[C@H]2CC[C@H](c3ncc(C[N+](C)(C)C)o3)CC2)c(=O)n1-c1cccc(C(F)(F)F)c1` [Example 67, [2-(Trans-4-{[2′-(4-Cyano-phenyl)-2-methyl-5-oxo-1-(3-trifluoromethyl-phenyl)-2,5-dihydro-1H,2′H-[3,3′]bipyrazolyl-4-carbonyl]-amino}-cyclohexyl)-oxazol-5-ylmethyl]-trimethyl-ammonium benzene sulphonate], the pIC50 was over 9.00.
As for `Cn1c(-c2ccnn2-c2ccc(C#N)cc2)c(C(=O)N[C@H]2C[C@H](c3ncc(C[N+](C)(C)C)o3)C2)c(=O)n1-c1cccc(C(F)(F)F)c1` [Example 68, [2-(Trans-3-{[2′-(4-cyano-phenyl)-2-methyl-5-oxo-1-(3-trifluoromethyl-phenyl)-2,5-dihydro-1H,2′H-[3,3′]bipyrazolyl-4-carbonyl]-amino}-cyclobutyl)-oxazol-5-ylmethyl]-trimethyl-ammonium benzene sulphonate], the figure is over 9.00; as for `Cn1c(-c2ccnn2-c2ccc(C#N)cc2)c(C(=O)N[C@H]2CC[C@H](C[n+]3ccccc3)CC2)c(=O)n1-c1cccc(C(F)(F)F)c1` [Example 69, 1-(4-{[2′-(4-Cyano-phenyl)-2-methyl-5-oxo-1-(3-trifluoromethyl-phenyl)-2,5-dihydro-1H,2′H-[3,3′]bipyrazolyl-4-carbonyl]-amino}-cyclohexylmethyl)-pyridinium bromide], over 9.00.
For `Cn1cc[n+](C[C@H]2CC[C@H](NC(=O)c3c(-c4ccnn4-c4ccc(C#N)cc4)n(C)n(-c4cccc(C(F)(F)F)c4)c3=O)CC2)c1` [Example 70, 1-(4-{[2′-(4-Cyano-phenyl)-2-methyl-5-oxo-1-(3-trifluoromethyl-phenyl)-2,5-dihydro-1H,2′H-[3,3′]bipyrazolyl-4-carbonyl]-amino}-cyclohexylmethyl)-3-methyl-3H-imidazol-1-ium bromide], the pIC50 was over 9.00.
Turning to `CCOC(=O)c1c(-c2ccnn2-c2ccc(C#N)cc2)n(CC)n(-c2cccc(C(F)(F)F)c2)c1=O` [Example 71, 2′-(4-Cyano-phenyl)-2-ethyl-5-oxo-1-(3-trifluoromethyl-phenyl)-2,5-dihydro-1H,2′H-[3,3′]bipyrazolyl-4-carboxylic acid ethyl ester], the pIC50 is over 9.00.
Under `Cn1c(-c2nccn2-c2ccc(C#N)cc2)c(C(=O)NC2CCCC2)c(=O)n1-c1cccc(C(F)(F)F)c1` [Example 72, 5-[1-(4-Cyano-phenyl)-1H-imidazol-2-yl]-1-methyl-3-oxo-2-(3-trifluoromethyl-phenyl)-2,3-dihydro-1H-pyrazole-4-carboxylic acid cyclopentyl-amide] stands over 9.00.
